Test systems include A549 NSCLC; DU-145 prostate; HCT-15 colon; HOP-62 NSCLC; HT29 colon; MALME-3M melanoma; SK-MEL-2 melanoma; SN12C renal; SNB-75 CNS; SR leukemia.
Holding throughout (assay): NCI anticancer screen, dose series, 48 h

SMILES strings stand for the structures.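 48-hour exposure; five concentrations; linearly interpolated endpoints. The concentration for 50% growth inhibition is given as GI50. At the TGI there is no net growth.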

`O=C(O)/C(=C\c1ccncc1)c1cccc2ccccc12`: the TGI in the experiment with A549 NSCLC, with DU-145 prostate, with HCT-15 colon, in the experiment on HOP-62 NSCLC, in the experiment on HT29 colon and in the experiment on MALME-3M melanoma was greater than 100 µM each time. In addition, the TGI in the experiment with SK-MEL-2 melanoma, in the experiment on SN12C renal, with SNB-75 CNS and in the experiment on SR leukemia was greater than 100 µM in each case.
Turning to `Nc1c(C(=O)Nc2cccc(Cl)c2Cl)sc2nc3c(cc12)C(=O)CCC3`, the GI50 in the experiment on A549 NSCLC is 0.866 µM; with DU-145 prostate, greater than 100 µM; in the experiment on HCT-15 colon it was greater than 100 µM; in the experiment with HOP-62 NSCLC it was greater than 100 µM; in the experiment with HT29 colon it was greater than 100 µM; with MALME-3M melanoma it was greater than 100 µM. The GI50 in the experiment on SN12C renal, with SNB-75 CNS and in the experiment with SR leukemia was greater than 100 µM throughout. Moreover, the TGI in the experiment on A549 NSCLC, with DU-145 prostate, in the experiment on HCT-15 colon, in the experiment on HOP-62 NSCLC, in the experiment with HT29 colon and in the experiment with MALME-3M melanoma was greater than 100 µM in each case. Also, the TGI with SK-MEL-2 melanoma, in the experiment with SN12C renal, with SNB-75 CNS and with SR leukemia was greater than 100 µM each time.
Turning to `COc1cccc2c1n([O-])c1cccc(OC)c1[n+]2=O`, the GI50 in the experiment on A549 NSCLC is 7.78 µM; in the experiment with DU-145 prostate, 7.97 µM; with HCT-15 colon it was 4.95 µM; in the experiment with HOP-62 NSCLC, 11 µM; in the experiment on MALME-3M melanoma it was 8.05 µM; with SK-MEL-2 melanoma it was 17.8 µM. In addition, the values for the GI50 in the experiment with SN12C renal and with SR leukemia were 6.85 µM and 0.897 µM, respectively. Further, the TGI with A549 NSCLC is greater than 100 µM; with DU-145 prostate it was greater than 100 µM; with HCT-15 colon it was greater than 100 µM; in the experiment with HOP-62 NSCLC, 36.7 µM; in the experiment on MALME-3M melanoma, 25.7 µM; in the experiment on SK-MEL-2 melanoma, greater than 100 µM. In addition, the values for the TGI with SN12C renal and in the experiment with SR leukemia were greater than 100 µM and 9.36 µM, respectively.
Consider `N#CC1C=Cc2c(ccc3ccccc23)N1C(=O)c1ccccc1` (centres undefined), for which the GI50 in the experiment on A549 NSCLC was 0.339 µM; in the experiment with DU-145 prostate, 0.26 µM; with HCT-15 colon, 0.184 µM; in the experiment on HOP-62 NSCLC it was 0.387 µM; with HT29 colon, 0.0701 µM; in the experiment on SK-MEL-2 melanoma, 4.61 µM. Also, the figures for the GI50 in the experiment with SN12C renal, in the experiment with SNB-75 CNS and in the experiment on SR leukemia were 1.15 µM, 0.226 µM and 0.1 µM, respectively. Moreover, the TGI was greater than 100 µM with A549 NSCLC; 1.97 µM in the experiment on DU-145 prostate; greater than 100 µM in the experiment with HCT-15 colon; greater than 100 µM with HOP-62 NSCLC; 3.82 µM in the experiment on HT29 colon; greater than 60.7 µM in the experiment with SK-MEL-2 melanoma. Also, the TGI with SN12C renal was greater than 100 µM; in the experiment with SNB-75 CNS it was 63.8 µM.
`O=C(CCCCC(=O)N/N=C\c1ccccc1O)N/N=C\c1ccccc1O`: the GI50 in the experiment with DU-145 prostate is 5.22 µM; with HCT-15 colon it was 2.02 µM; in the experiment on HOP-62 NSCLC, 4.12 µM; in the experiment with HT29 colon, greater than 100 µM; with SK-MEL-2 melanoma it was 6.66 µM; in the experiment on SN12C renal it was 4.5 µM. In addition, the GI50 in the experiment on SNB-75 CNS is 3.39 µM; in the experiment with SR leukemia it was 2.84 µM. Besides, the TGI in the experiment with DU-145 prostate was greater than 100 µM; in the experiment on HCT-15 colon, greater than 100 µM; in the experiment with HOP-62 NSCLC it was 71.8 µM; with HT29 colon it was greater than 100 µM; in the experiment on SK-MEL-2 melanoma, greater than 100 µM; in the experiment with SN12C renal, greater than 100 µM. Also, the values for the TGI with SNB-75 CNS and with SR leukemia were 20.5 µM and greater than 100 µM, respectively.
Take `COc1cc(NC(=O)C2=C(N3CCOCC3)/C(=C/c3ccc(Cl)cc3)CC2)cc(OC)c1OC`: the GI50 was 55.9 µM with A549 NSCLC; greater than 100 µM in the experiment with DU-145 prostate; greater than 100 µM in the experiment on HCT-15 colon; 4.66 µM in the experiment with HOP-62 NSCLC; greater than 100 µM with HT29 colon; greater than 100 µM with MALME-3M melanoma. Moreover, the GI50 with SK-MEL-2 melanoma is 66.8 µM; in the experiment with SN12C renal, 94.3 µM; with SNB-75 CNS it was 6.24 µM. The TGI was greater than 100 µM with A549 NSCLC; greater than 100 µM in the experiment with DU-145 prostate; greater than 100 µM in the experiment on HCT-15 colon; 21.2 µM with HOP-62 NSCLC; greater than 100 µM in the experiment with HT29 colon; greater than 100 µM with MALME-3M melanoma. Also, the TGI in the experiment with SK-MEL-2 melanoma is greater than 100 µM; with SN12C renal it was greater than 100 µM; in the experiment with SNB-75 CNS, 33.9 µM.
For the compound `O=C(/C=C\c1ccccc1)N1CCc2ccccc2C1`, the TGI with DU-145 prostate is greater than 100 µM; in the experiment with HCT-15 colon, greater than 100 µM; in the experiment with HOP-62 NSCLC, greater than 100 µM; in the experiment on HT29 colon, greater than 100 µM; in the experiment with SK-MEL-2 melanoma, 91.3 µM; in the experiment with SNB-75 CNS, greater than 100 µM. Further, the TGI with SR leukemia is 69.1 µM.
`CS(=O)(=O)N(c1cc(-c2ccc3ncnc(Nc4cccc(Cl)c4)c3c2)cnc1Cl)S(C)(=O)=O`: the GI50 with A549 NSCLC was 1.03 µM; in the experiment on DU-145 prostate, 0.508 µM; in the experiment on HCT-15 colon, 0.403 µM; in the experiment on HOP-62 NSCLC, 0.443 µM; in the experiment on HT29 colon, 0.364 µM; in the experiment on SK-MEL-2 melanoma, 0.469 µM. For the same compound, the GI50 is 0.386 µM with SN12C renal, 0.0406 µM in the experiment on SNB-75 CNS and 0.696 µM with SR leukemia. Also, the TGI in the experiment on A549 NSCLC came to 4.24 µM; in the experiment on DU-145 prostate it was 14.1 µM; with HCT-15 colon, 6.99 µM; in the experiment with HOP-62 NSCLC, 12.8 µM; in the experiment with HT29 colon, 58.8 µM; with SK-MEL-2 melanoma, 2.09 µM. In addition, the TGI in the experiment on SN12C renal stood at 17 µM; in the experiment with SNB-75 CNS, 0.641 µM; with SR leukemia it was 6.68 µM.
As for `CCCCCCCCCCCCCCCC1=NC(C)(C)CN1C(C)C`, the GI50 in the experiment on A549 NSCLC was 1.81 µM; with DU-145 prostate it was 1.56 µM; with HCT-15 colon, 1.47 µM; with HOP-62 NSCLC, 1.63 µM; in the experiment on MALME-3M melanoma it was 1.64 µM; in the experiment with SK-MEL-2 melanoma, 1.63 µM. For the same compound, the GI50 was 1.38 µM with SN12C renal, 1.47 µM in the experiment with SNB-75 CNS and 0.254 µM in the experiment with SR leukemia. In addition, the TGI came to 3.43 µM in the experiment with A549 NSCLC; 2.9 µM with DU-145 prostate; 2.79 µM with HCT-15 colon; 2.98 µM in the experiment on HOP-62 NSCLC; 3.35 µM in the experiment with MALME-3M melanoma; 3.07 µM in the experiment on SK-MEL-2 melanoma. Further, the TGI with SN12C renal came to 2.89 µM; in the experiment on SNB-75 CNS, 2.94 µM; in the experiment on SR leukemia, 1.36 µM.
